According to patent publication US11312712B2, “Azabenzimidazoles and their use as AMPA receptor modulators” (Janssen Pharmaceutica NV, priority 2015, dated 2022):

molecular target: GluA1o-γ8 (GRIA1o-CACNG8 fusion construct) (Homo sapiens (Human), UniProt P42261+Q8WXS5); experiment: Calcium flux assay (FLIPR), inhibition of TARP γ8 dependent AMPA receptor activity; assay type: cell-based; conditions: GluA1o-γ8 (GRIA1o-CACNG8 fusion) in HEK293 cells, calcium flux after 15 μM glutamate
Method in brief: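 HEK293 cells stably expressing a 1:1 GRIA1o–CACNG8 fusion were loaded with Calcium-5/6 dye plus compound in pH 7.4 HEPES-buffered saline. FLIPR calcium flux after 15 μM glutamate was normalized to untreated and 10 μM CP465022 controls, and a four-parameter logistic fit gave pIC50.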

Chain of GluA1o-γ8 (GRIA1o-CACNG8 fusion construct) (P42261 other isoform, or with tags, fused parts or gaps): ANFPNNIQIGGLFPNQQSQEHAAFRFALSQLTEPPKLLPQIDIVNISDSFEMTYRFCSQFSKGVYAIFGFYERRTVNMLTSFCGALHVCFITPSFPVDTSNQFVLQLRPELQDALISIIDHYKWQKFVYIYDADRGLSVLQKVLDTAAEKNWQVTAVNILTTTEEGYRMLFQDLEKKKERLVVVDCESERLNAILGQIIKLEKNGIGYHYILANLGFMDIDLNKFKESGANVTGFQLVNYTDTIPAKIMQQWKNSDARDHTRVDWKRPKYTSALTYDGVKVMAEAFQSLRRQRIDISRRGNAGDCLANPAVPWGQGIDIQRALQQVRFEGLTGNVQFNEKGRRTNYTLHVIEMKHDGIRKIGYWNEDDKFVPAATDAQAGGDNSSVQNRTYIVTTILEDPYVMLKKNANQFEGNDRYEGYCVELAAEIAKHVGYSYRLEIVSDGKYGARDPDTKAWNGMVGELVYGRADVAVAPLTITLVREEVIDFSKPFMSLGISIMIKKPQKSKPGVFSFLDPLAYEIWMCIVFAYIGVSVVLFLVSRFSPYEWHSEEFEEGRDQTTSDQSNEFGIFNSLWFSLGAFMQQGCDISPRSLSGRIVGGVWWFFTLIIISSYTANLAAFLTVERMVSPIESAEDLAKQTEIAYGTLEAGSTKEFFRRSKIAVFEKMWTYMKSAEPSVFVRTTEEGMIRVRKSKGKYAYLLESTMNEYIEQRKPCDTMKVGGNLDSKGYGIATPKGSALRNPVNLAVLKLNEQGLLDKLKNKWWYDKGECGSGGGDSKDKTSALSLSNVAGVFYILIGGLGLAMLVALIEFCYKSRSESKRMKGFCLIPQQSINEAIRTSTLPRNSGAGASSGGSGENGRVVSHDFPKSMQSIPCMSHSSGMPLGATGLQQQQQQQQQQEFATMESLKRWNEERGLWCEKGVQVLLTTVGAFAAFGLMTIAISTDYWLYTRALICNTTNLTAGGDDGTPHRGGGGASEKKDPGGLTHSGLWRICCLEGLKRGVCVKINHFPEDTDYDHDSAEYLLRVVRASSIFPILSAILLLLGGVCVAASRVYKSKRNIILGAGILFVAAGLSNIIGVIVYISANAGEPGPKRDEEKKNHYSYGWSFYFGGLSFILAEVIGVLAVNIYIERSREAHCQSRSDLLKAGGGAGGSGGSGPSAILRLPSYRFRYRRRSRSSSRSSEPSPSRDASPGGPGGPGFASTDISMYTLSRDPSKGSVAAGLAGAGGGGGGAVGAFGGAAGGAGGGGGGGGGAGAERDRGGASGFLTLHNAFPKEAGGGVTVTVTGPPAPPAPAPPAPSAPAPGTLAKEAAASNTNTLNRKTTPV

Row | Structure (SMILES) | IC50
1 | O=C1Cc2cc(-n3c(C(F)(F)F)nc4ccc(C(F)F)nc43)ccc2N1 [Example 153, 5-[5-(Difluoromethyl)-2-(trifluoromethyl)imidazo[4,5-b]pyridin-3-yl]indolin-2-one] | 2.51 nM
2 | CC(F)(F)c1nc2ccc(C(F)F)nc2n1-c1ccc2c(c1)CC(=O)N2 [Example 154, 5-[2-(1-Difluoroethyl)-5-(difluoromethyl)imidazo[4,5-b]pyridin-3-yl]indolin-2-one] | 5.01 nM
3 | CSc1ccc2nc(-c3ccc(F)cc3)n(-c3ccc4[nH]ccc4c3)c2n1 [Example 155, 2-(4-Fluorophenyl)-3-(1H-indol-5-yl)-5-methylsulfanyl-imidazo[4,5-b]pyridine] | 39.8 nM
4 | Oc1ccc2nc(-c3ccccc3)n(-c3ccc4[nH]ncc4c3)c2n1 [Example 156, 3-(1H-Indazol-5-yl)-2-phenyl-imidazo[4,5-b]pyridin-5-ol] | 25.1 nM
5 | COc1ccc2nc(C3CC3)n(-c3ccc4[nH]ncc4c3)c2n1 [Example 157, 2-Cyclopropyl-3-(1H-indazol-5-yl)-5-methoxy-imidazo[4,5-b]pyridine] | 12.6 nM
6 | CCc1nc2ccc(C(F)(F)F)nc2n1-c1ccc2[nH]c(=O)oc2c1 [Example 158, 6-[2-Ethyl-5-(trifluoromethyl)imidazo[4,5-b]pyridin-3-yl]-3H-1,3-benzoxazol-2-one] | 31.6 nM
7 | CC(C)c1nc2ccc(C(F)(F)F)nc2n1-c1ccc2[nH]c(=O)oc2c1 [Example 159, 6-[2-Isopropyl-5-(trifluoromethyl)imidazo[4,5-b]pyridin-3-yl]-3H-1,3-benzoxazol-2-one] | 15.8 nM
8 | O=c1[nH]c2ccc(-n3c(C4CCOCC4)nc4ccc(C(F)(F)F)nc43)cc2o1 [Example 160, 6-[2-Tetrahydropyran-4-yl-5-(trifluoromethyl)imidazo[4,5-b]pyridin-3-yl]-3H-1,3-benzoxazol-2-one] | 1000 nM
9 | CCOCc1nc2ccc(C(F)(F)F)nc2n1-c1ccc2[nH]c(=O)oc2c1 [Example 162, 6-[2-(Ethoxymethyl)-5-(trifluoromethyl)imidazo[4,5-b]pyridin-3-yl]-3H-1,3-benzoxazol-2-one] | 631 nM
10 | CC(C)(C)c1nc2ccc(C(F)(F)F)nc2n1-c1ccc2[nH]c(=O)oc2c1 [Example 163, 6-[2-tert-Butyl-5-(trifluoromethyl)imidazo[4,5-b]pyridin-3-yl]-3H-1,3-benzoxazol-2-one] | 158 nM
11 | O=C1Cc2cc(-n3c(-c4ccnc(F)c4)nc4ccc(C(F)(F)F)nc43)ccc2N1 [Example 164, 5-[2-(2-Fluoro-4-pyridyl)-5-(trifluoromethyl)imidazo[4,5-b]pyridin-3-yl]indolin-2-one] | 1.26 nM
12 | Fc1cc(-c2nc3ccc(C(F)(F)F)nc3n2-c2ccc3[nH]ncc3c2)ccn1 [Example 165, 2-(2-Fluoro-4-pyridyl)-3-(1H-indazol-5-yl)-5-(trifluoromethyl)imidazo[4,5-b]pyridine] | 1.58 nM
13 | O=C1Cc2cc(-n3c(C4CC(F)C4)nc4ccc(C(F)(F)F)nc43)ccc2N1 (stereo not shown) [Example 166, 5-[2-(3-Fluorocyclobutyl)-5-(trifluoromethyl)imidazo[4,5-b]pyridin-3-yl]indolin-2-one] | 10 nM
14 | CC[C@@H](C)c1nc2ccc(C(F)(F)F)nc2n1-c1ccc2[nH]ncc2c1 [Example 167, (R)-3-(1H-Indazol-5-yl)-2-sec-butyl-5-(trifluoromethyl)imidazo[4,5-b]pyridine] | 2 nM
15 | CC[C@H](C)c1nc2ccc(C(F)(F)F)nc2n1-c1ccc2[nH]ncc2c1 [Example 168, (S)-3-(1H-Indazol-5-yl)-2-sec-butyl-5-(trifluoromethyl)imidazo[4,5-b]pyridine] | 6.31 nM
16 | Fc1ccc(-c2nc3ccc(C(F)(F)F)nc3n2-c2ccc3[nH]ncc3c2)nc1 [Example 169, 2-(5-Fluoro-2-pyridyl)-3-(1H-indazol-5-yl)-5-(trifluoromethyl)imidazo[4,5-b]pyridine] | 3.16 nM
17 | CC(C)c1ccc2nc(C(F)(F)F)n(-c3ccc4[nH]ncc4c3)c2n1 [Example 170, 3-(1H-Indazol-5-yl)-5-isopropyl-2-(trifluoromethyl)imidazo[4,5-b]pyridine] | 0.631 nM
18 | CC(C)(C)c1ccc2nc(C(F)(F)F)n(-c3ccc4[nH]ncc4c3)c2n1 [Example 171, 5-tert-Butyl-3-(1H-indazol-5-yl)-2-(trifluoromethyl)imidazo[4,5-b]pyridine] | 3.16 nM
19 | CC(C)NC(=O)c1nc2ccc(C(F)(F)F)nc2n1-c1ccc2[nH]ncc2c1 [Example 172, 3-(1H-Indazol-5-yl)-N-isopropyl-5-(trifluoromethyl)imidazo[4,5-b]pyridine-2-carboxamide] | 3980 nM
20 | O=C(c1nc2ccc(C(F)(F)F)nc2n1-c1ccc2[nH]ncc2c1)N1CCCC1 [Example 173, [3-(1H-Indazol-5-yl)-5-(trifluoromethyl)imidazo[4,5-b]pyridin-2-yl]-pyrrolidin-1-yl-methanone] | 10000 nM

Row | Structure (SMILES) | IC50
21 | FC(F)(F)c1ccc(-c2nc3cccnc3n2-c2ccc3[nH]ncc3c2)cc1 [Example 176, 3-(1H-Indazol-5-yl)-2-[4-(trifluoromethyl)phenyl]imidazo[4,5-b]pyridine] | 10000 nM
22 | FC(F)(F)Oc1ccc(-c2nc3cccnc3n2-c2ccc3[nH]ncc3c2)cc1 [Example 177, 3-(1H-Indazol-5-yl)-2-[4-(trifluoromethoxy)phenyl]imidazo[4,5-b]pyridine] | 12600 nM
23 | O=C1Cc2cc(-n3c(-c4ccc(C(F)(F)F)cc4)nc4cccnc43)ccc2N1 [Example 178, 5-[2-[4-(Trifluoromethyl)phenyl]imidazo[4,5-b]pyridin-3-yl]indolin-2-one] | 3160 nM
24 | CC(C)(C)OC(=O)N1CC(c2nc3ccc(C(F)(F)F)nc3n2-c2ccc3c(c2)CC(=O)N3)C1 [Example 179, tert-Butyl 3-[3-(2-oxoindolin-5-yl)-5-(trifluoromethyl)imidazo[4,5-b]pyridin-2-yl]azetidine-1-carboxylate] | 3160 nM
25 | O=C1Cc2cc(-n3c(C4CNC4)nc4ccc(C(F)(F)F)nc43)ccc2N1 [Example 180, 5-[2-(Azetidin-3-yl)-5-(trifluoromethyl)imidazo[4,5-b]pyridin-3-yl]indolin-2-one] | 2000 nM
26 | Cc1ccc2nc(C)n(-c3ccc4c(c3)CC(=O)N4)c2n1 [Example 181, 5-(2,5-Dimethylimidazo[4,5-b]pyridin-3-yl)indolin-2-one] | 2510 nM
27 | COC(=O)CCc1nc2ccc(C(F)(F)F)nc2n1-c1ccc2c(c1)CC(=O)N2 [Example 183, Methyl 3-[3-(2-oxoindolin-5-yl)-5-(trifluoromethyl)imidazo[4,5-b]pyridin-2-yl]propanoate] | 2000 nM
28 | CC(C)c1nc2ccc(C(F)(F)F)nc2n1-c1cc(Br)c2[nH]ncc2c1 [Example 184, 3-(7-Bromo-1H-indazol-5-yl)-2-isopropyl-5-(trifluoromethyl)imidazo[4,5-b]pyridine] | 0.01 nM
29 | Cn1c(=O)sc2cc(-n3c(C4CCC4)nc4ccc(C(F)(F)F)nc43)ccc21 [Example 185, 6-(2-Cyclobutyl-5-(trifluoromethyl)-3H-imidazo[4,5-b]pyridin-3-yl)-3-methylbenzo[d]thiazol-2(3H)-one] | 100 nM
30 | FC(F)(F)c1ccc2nc(C(F)(F)F)n(-c3cc(Br)c4[nH]ncc4c3)c2n1 [Example 187, 3-(7-Bromo-1H-indazol-5-yl)-2,5-bis(trifluoromethyl)imidazo[4,5-b]pyridine] | 0.01 nM
31 | FC(F)(F)c1ccc2nc(C(F)(F)F)n(-c3cc(-c4ccccc4)c4[nH]ncc4c3)c2n1 [Example 188, 3-(7-Phenyl-1H-indazol-5-yl)-2,5-bis(trifluoromethyl)-3H-imidazo[4,5-b]pyridine] | 316 nM
32 | C=Cc1cc(-n2c(C(F)(F)F)nc3ccc(C(F)(F)F)nc32)cc2cn[nH]c12 [Example 189, 2,5-Bis(trifluoromethyl)-3-(7-vinyl-1H-indazol-5-yl)-3H-imidazo[4,5-b]pyridine] | 0.0398 nM
33 | O=c1[nH]c2ccc(-n3cnc4ccc(C(F)(F)F)nc43)cc2s1 [Example 190, 6-(5-(Trifluoromethyl)-3H-imidazo[4,5-b]pyridin-3-yl)benzo[d]thiazol-2(3H)-one] | 316 nM
34 | CC(C)c1nc2ccc(C(F)(F)F)nc2n1-c1ccc2[nH]nc(F)c2c1 [Example 191, 3-(3-Fluoro-1H-indazol-5-yl)-2-isopropyl-5-(trifluoromethyl)imidazo[4,5-b]pyridine] | 3.98 nM
35 | FC(F)(F)c1nc2ccc(Cl)nc2n1-c1ccc2[nH]ncc2c1 [Example 192, 5-Chloro-3-(1H-indazol-5-yl)-2-(trifluoromethyl)imidazo[4,5-b]pyridine] | 2.51 nM
36 | CCc1ccc2nc(C(F)(F)F)n(-c3ccc4[nH]ncc4c3)c2n1 [Example 193, 5-Ethyl-3-(1H-indazol-5-yl)-2-(trifluoromethyl)imidazo[4,5-b]pyridine] | 1.58 nM
37 | Cc1cc(-n2cnc3ccc(C(F)(F)F)nc32)cc2cn[nH]c12 [Example 194, 3-(7-Methyl-1H-indazol-5-yl)-5-(trifluoromethyl)imidazo[4,5-b]pyridine] | 20 nM
38 | Cc1cc(-n2c(-c3ccc(F)cc3)nc3ccc(C(F)(F)F)nc32)cc2cn[nH]c12 [Example 195, 2-(4-Fluorophenyl)-3-(7-methyl-1H-indazol-5-yl)-5-(trifluoromethyl)imidazo[4,5-b]pyridine] | 0.0126 nM
39 | CCOc1nc2ccc(C(F)(F)F)nc2n1-c1ccc2[nH]nc(F)c2c1 [Example 196, 2-Ethoxy-3-(3-fluoro-1H-indazol-5-yl)-5-(trifluoromethyl)imidazo[4,5-b]pyridine] | 25.1 nM
40 | Fc1n[nH]c2ccc(-n3c(C4CC4)nc4ccc(C(F)(F)F)nc43)cc12 [Example 197, 2-Cyclopropyl-3-(3-fluoro-1H-indazol-5-yl)-5-(trifluoromethyl)imidazo[4,5-b]pyridine] | 6.31 nM
